Results as given in patent publication US12404262B2 (priority 2021, dated 2025).
Values after ≈ are worked out from the molar mass of the structure shown. Like-named read-outs stand apart in the source and are kept apart here.

Key:
[1] = Solubility in simulated intestinal fluids (FaSSIF/FeSSIF); conditions: 25 °C, thermodynamic from solid
[2] = 0.1N HCl, 1.0% DMSO, 24-hour incubation at ambient temperature, maximum theoretical 100 μM, first value of the cell
[3] = 1×PBS buffer (pH 7.4), 1.0% DMSO, 24-hour incubation at ambient temperature, maximum theoretical 100 μM, second value of the cell
[4] = fasted state simulated intestinal fluid (FaSSIF), fassif
[5] = fed state simulated intestinal fluid (FeSSIF), fessif

pH 2 solubility [2]	pH 7 solubility [3]	solubility [1, 4]	solubility [1, 5]	pH 7 solubility	pH 2 solubility (pH 2)	SMILES
1 μM	92 μM	710 µg/mL (≈ 682 µM)	497 µg/mL (≈ 478 µM)	–	–	CC(C)(C#Cc1ccc(-c2ccc(Cl)c3c(N(C(=O)C(=O)O)S(C)(=O)=O)nn(CC(F)(F)F)c23)c([C@H](Cc2cc(F)cc(F)c2)NC(=O)Cn2nc(C(F)(F)F)c3c2C(F)(F)[C@@H]2C[C@H]32)n1)S(C)(=O)=O [Compound 16]
13 μM	100 μM	448 µg/mL (≈ 419 µM)	454 µg/mL (≈ 424 µM)	–	–	CC(C)(C#Cc1ccc(-c2ccc(Cl)c3c(N(COC(=O)C(=O)O)S(C)(=O)=O)nn(CC(F)(F)F)c23)c([C@H](Cc2cc(F)cc(F)c2)NC(=O)Cn2nc(C(F)(F)F)c3c2C(F)(F)[C@@H]2C[C@H]32)n1)S(C)(=O)=O [Compound 20, 2-((N-(4-chloro-7-(2-((S)-1-(2-((3bS,4aR)-5,5-difluoro-3-(trifluoromethyl)-3b,4,4a,5-tetrahydro-1H-cyclopropa[3,4]cyclopenta[1,2-c]pyrazol-1-yl)acetamido)-2-(3,5-difluorophenyl)ethyl)-6-(3-methyl-3-(methylsulfonyl)but-1-yn-1-yl)pyridin-3-yl)-1-(2,2,2-trifluoroethyl)-1H-indazol-3-yl)methylsulfonamido)methoxy)-2-oxoacetic acid]
–	–	7 µg/mL (≈ 6.38 µM)	68 µg/mL (≈ 62 µM)	–	–	CC(C)(C#Cc1ccc(-c2ccc(Cl)c3c(N(C(=O)NCCNC(=N)N)S(C)(=O)=O)nn(CC(F)(F)F)c23)c([C@H](Cc2cc(F)cc(F)c2)NC(=O)Cn2nc(C(F)(F)F)c3c2C(F)(F)[C@@H]2C[C@H]32)n1)S(C)(=O)=O [Compound 76]
1/1 μM	1/1 μM	–	–	–	–	C[C@@H](OC(=O)N(c1nn(CC(F)(F)F)c2c(-c3ccc(C#CC(C)(C)S(C)(=O)=O)nc3[C@H](Cc3cc(F)cc(F)c3)NC(=O)Cn3nc(C(F)(F)F)c4c3C(F)(F)[C@@H]3C[C@H]43)ccc(Cl)c12)S(C)(=O)=O)C(=O)O [Compound 116, (R)-2-(((4-chloro-7-(2-((S)-1-(2-((3bS,4aR)-5,5-difluoro-3-(trifluoromethyl)-3b,4,4a,5-tetrahydro-1H-cyclopropa[3,4]cyclopenta[1,2-c]pyrazol-1-yl)acetamido)-2-(3,5-difluorophenyl)ethyl)-6-(3-methyl-3-(methylsulfonyl)but-1-yn-1-yl)pyridin-3-yl)-1-(2,2,2-trifluoroethyl)-1H-indazol-3-yl)(methylsulfonyl)carbamoyl)oxy)propanoic acid]
9 μM	10 μM	–	–	–	–	CC(C)(C#Cc1ccc(-c2ccc(Cl)c3c(N(C(=O)OCC(=O)O)S(C)(=O)=O)nn(CC(F)(F)F)c23)c([C@H](Cc2cc(F)cc(F)c2)NC(=O)Cn2nc(C(F)(F)F)c3c2C(F)(F)[C@@H]2C[C@H]32)n1)S(C)(=O)=O [Compound 117, 2-(((4-chloro-7-(2-((S)-1-(2-((3bS,4aR)-5,5-difluoro-3-(trifluoromethyl)-3b,4,4a,5-tetrahydro-1H-cyclopropa[3,4]cyclopenta[1,2-c]pyrazol-1-yl)acetamido)-2-(3,5-difluorophenyl)ethyl)-6-(3-methyl-3-(methylsulfonyl)but-1-yn-1-yl)pyridin-3-yl)-1-(2,2,2-trifluoroethyl)-1H-indazol-3-yl)(methylsulfonyl)carbamoyl)oxy)acetic acid]
1/1 μM	1/1 μM	–	–	–	–	CC(C)(C#Cc1ccc(-c2ccc(Cl)c3c(N(C(=O)O[C@H](C(=O)O)[C@H](O)C(=O)O)S(C)(=O)=O)nn(CC(F)(F)F)c23)c([C@H](Cc2cc(F)cc(F)c2)NC(=O)Cn2nc(C(F)(F)F)c3c2C(F)(F)[C@@H]2C[C@H]32)n1)S(C)(=O)=O [Compound 118, (2S,3S)-2-(((4-chloro-7-(2-((S)-1-(2-((3bS,4aR)-5,5-difluoro-3-(trifluoromethyl)-3b,4,4a,5-tetrahydro-1H-cyclopropa[3,4]cyclopenta[1,2-c]pyrazol-1-yl)acetamido)-2-(3,5-difluorophenyl)ethyl)-6-(3-methyl-3-(methylsulfonyl)but-1-yn-1-yl)pyridin-3-yl)-1-(2,2,2-trifluoroethyl)-1H-indazol-3-yl)(methylsulfonyl)carbamoyl)oxy)-3-hydroxysuccinic acid]
1/1 μM	1/1 μM	–	–	–	–	CC(C)(C#Cc1ccc(-c2ccc(Cl)c3c(N(C(=O)O[C@@H](CC(=O)O)C(=O)O)S(C)(=O)=O)nn(CC(F)(F)F)c23)c([C@H](Cc2cc(F)cc(F)c2)NC(=O)Cn2nc(C(F)(F)F)c3c2C(F)(F)[C@@H]2C[C@H]32)n1)S(C)(=O)=O [Compound 119, (S)-2-(((4-chloro-7-(2-((S)-1-(2-((3bS,4aR)-5,5-difluoro-3-(trifluoromethyl)-3b,4,4a,5-tetrahydro-1H-cyclopropa[3,4]cyclopenta[1,2-c]pyrazol-1-yl)acetamido)-2-(3,5-difluorophenyl)ethyl)-6-(3-methyl-3-(methylsulfonyl)but-1-yn-1-yl)pyridin-3-yl)-1-(2,2,2-trifluoroethyl)-1H-indazol-3-yl)(methylsulfonyl)carbamoyl)oxy)succinic acid]
1 μM	9 μM	–	–	–	–	C[C@@H](CC(=O)O)OC(=O)N(c1nn(CC(F)(F)F)c2c(-c3ccc(C#CC(C)(C)S(C)(=O)=O)nc3[C@H](Cc3cc(F)cc(F)c3)NC(=O)Cn3nc(C(F)(F)F)c4c3C(F)(F)[C@@H]3C[C@H]43)ccc(Cl)c12)S(C)(=O)=O [Compound 120, (S)-3-(((4-chloro-7-(2-((S)-1-(2-((3bS,4aR)-5,5-difluoro-3-(trifluoromethyl)-3b,4,4a,5-tetrahydro-1H-cyclopropa[3,4]cyclopenta[1,2-c]pyrazol-1-yl)acetamido)-2-(3,5-difluorophenyl)ethyl)-6-(3-methyl-3-(methylsulfonyl)but-1-yn-1-yl)pyridin-3-yl)-1-(2,2,2-trifluoroethyl)-1H-indazol-3-yl)(methylsulfonyl)carbamoyl)oxy)butanoic acid]
1 μM	21 μM	–	–	–	–	CC(C)(C#Cc1ccc(-c2ccc(Cl)c3c(N(C(=O)OCCC(=O)O)S(C)(=O)=O)nn(CC(F)(F)F)c23)c([C@H](Cc2cc(F)cc(F)c2)NC(=O)Cn2nc(C(F)(F)F)c3c2C(F)(F)[C@@H]2C[C@H]32)n1)S(C)(=O)=O [Compound 121, 3-(((4-chloro-7-(2-((S)-1-(2-((3bS,4aR)-5,5-difluoro-3-(trifluoromethyl)-3b,4,4a,5-tetrahydro-1H-cyclopropa[3,4]cyclopenta[1,2-c]pyrazol-1-yl)acetamido)-2-(3,5-difluorophenyl)ethyl)-6-(3-methyl-3-(methylsulfonyl)but-1-yn-1-yl)pyridin-3-yl)-1-(2,2,2-trifluoroethyl)-1H-indazol-3-yl)(methylsulfonyl)carbamoyl)oxy)propanoic acid]
–	–	–	–	2/83 μM	2/83 μM	CC(C)(C#Cc1ccc(-c2ccc(Cl)c3c(N(C(=O)OC(CCC(=O)O)CCC(=O)O)S(C)(=O)=O)nn(CC(F)(F)F)c23)c([C@H](Cc2cc(F)cc(F)c2)NC(=O)Cn2nc(C(F)(F)F)c3c2C(F)(F)[C@@H]2C[C@H]32)n1)S(C)(=O)=O [Compound 124, 4-(((4-chloro-7-(2-((S)-1-(2-((3bS,4aR)-5,5-difluoro-3-(trifluoromethyl)-3b,4,4a,5-tetrahydro-1H-cyclopropa[3,4]cyclopenta[1,2-c]pyrazol-1-yl)acetamido)-2-(3,5-difluorophenyl)ethyl)-6-(3-methyl-3-(methylsulfonyl)but-1-yn-1-yl)pyridin-3-yl)-1-(2,2,2-trifluoroethyl)-1H-indazol-3-yl)(methylsulfonyl)carbamoyl)oxy)heptanedioic acid]
8 μM	1 μM	–	–	–	–	CC(C)(C#Cc1ccc(-c2ccc(Cl)c3c(N(C(=O)O[C@H]4C[C@@H](NC(=N)N)C4)S(C)(=O)=O)nn(CC(F)(F)F)c23)c([C@H](Cc2cc(F)cc(F)c2)NC(=O)Cn2nc(C(F)(F)F)c3c2C(F)(F)[C@@H]2C[C@H]32)n1)S(C)(=O)=O [Compound 127, cis-3-guanidinocyclobutyl (4-chloro-7-(2-((S)-1-(2-((3bS,4aR)-5,5-difluoro-3-(trifluoromethyl)-3b,4,4a,5-tetrahydro-1H-cyclopropa[3,4]cyclopenta[1,2-c]pyrazol-1-yl)acetamido)-2-(3,5-difluorophenyl)ethyl)-6-(3-methyl-3-(methylsulfonyl)but-1-yn-1-yl)pyridin-3-yl)-1-(2,2,2-trifluoroethyl)-1H-indazol-3-yl)(methylsulfonyl)carbamate]
5 μM	1 μM	–	–	–	–	CC(C)(C#Cc1ccc(-c2ccc(Cl)c3c(N(C(=O)O[C@H]4C[C@H](NC(=N)N)C4)S(C)(=O)=O)nn(CC(F)(F)F)c23)c([C@H](Cc2cc(F)cc(F)c2)NC(=O)Cn2nc(C(F)(F)F)c3c2C(F)(F)[C@@H]2C[C@H]32)n1)S(C)(=O)=O [Compound 128, trans-3-guanidinocyclobutyl (4-chloro-7-(2-((S)-1-(2-((3bS,4aR)-5,5-difluoro-3-(trifluoromethyl)-3b,4,4a,5-tetrahydro-1H-cyclopropa[3,4]cyclopenta[1,2-c]pyrazol-1-yl)acetamido)-2-(3,5-difluorophenyl)ethyl)-6-(3-methyl-3-(methylsulfonyl)but-1-yn-1-yl)pyridin-3-yl)-1-(2,2,2-trifluoroethyl)-1H-indazol-3-yl)(methylsulfonyl)carbamate]
54 μM	7 μM	–	–	–	–	CC(C)(C#Cc1ccc(-c2ccc(Cl)c3c(N(C(=O)OCCCN)S(C)(=O)=O)nn(CC(F)(F)F)c23)c([C@H](Cc2cc(F)cc(F)c2)NC(=O)Cn2nc(C(F)(F)F)c3c2C(F)(F)[C@@H]2C[C@H]32)n1)S(C)(=O)=O [Compound 129, 3-aminopropyl (4-chloro-7-(2-((S)-1-(2-((3bS,4aR)-5,5-difluoro-3-(trifluoromethyl)-3b,4,4a,5-tetrahydro-1H-cyclopropa[3,4]cyclopenta[1,2-c]pyrazol-1-yl)acetamido)-2-(3,5-difluorophenyl)ethyl)-6-(3-methyl-3-(methylsulfonyl)but-1-yn-1-yl)pyridin-3-yl)-1-(2,2,2-trifluoroethyl)-1H-indazol-3-yl)(methylsulfonyl)carbamate]
